From a melting point compilation (Tetko et al.; mined from patent text by program, amines drawn as free bases though some values may be those of a salt)

Structure (SMILES) | melting point
COc1cc(Nc2c(C#N)cnc3cc(/C=C/CCN4CCCC4)c(OC)cc23)c(Cl)cc1Cl | 158 to 159 °C
COc1ccc2oc(CC(=O)O)c(C)c2c1 | 113 to 114 °C
O=C(O)c1cc(Oc2ccc(Cl)cc2)c(Cl)cc1[N+](=O)[O-] | 160 to 162 °C
COc1ccc(-c2nn(Cc3ccccc3)c(=O)cc2-c2ccc(Cl)cc2)cc1 | 165 to 167 °C
O=Cc1cn(Cc2ccc(OCc3ccccc3)cc2)nc1-c1ccc(F)cc1 | 97 to 98 °C
COc1ccc(C(=O)[C@H]2CC=CC[C@H]2C(=O)O)cc1OC (relative stereo) | 110 to 112 °C
O=C(c1ccccc1C(c1ccc(O)cc1)c1ccc(O)cc1)N(C1CCCCC1)C1CCCCC1 | > 300 °C
Cn1c(C(F)(F)F)nc(-c2ccc(F)cc2)c1-c1ccc(S(C)(=O)=O)cc1 | 187 to 189 °C
COc1ccc(S(N)(=O)=O)cc1CC(C)=O | 138 to 139 °C
O=C(Nc1ccc(-n2nc(C(F)(F)F)cc2Cl)cc1)c1ccncc1F | 128 to 129 °C
CN1OC(CNc2ccccc2)CC1(Cn1ccnc1)c1ccc(Cl)cc1 (configuration not stated) | 159 to 160 °C
CC(C)NC1CN(c2c(F)cc3c(=O)c(C(=O)O)cn(-c4nc(N)c(F)cc4F)c3c2Br)C1 | > 203 °C
CC(C)(C)OC(=O)C[C@H](NC(=O)c1cccc(NC(=O)C(Cc2ccc(C(=N)N)cc2)NC(=O)OC(C)(C)C)c1)C(=O)N[C@@H](Cc1cccc2ccccc12)C(=O)O (mixture of isomers) | 263 to 265 °C
CCn1cc(C(=O)O)c(=O)c2c1CCCC2=O | 212 to 214 °C
CCCc1nc(C(=O)C(C)(C)C)c(C#N)[nH]1 | 176 to 178 °C
CC(C)(C)c1cc(CCC(=O)NNC(=O)C=Cc2ccc(Cl)cc2)cc(C(C)(C)C)c1O | 276 to 277 °C
CC(=O)OCc1ccc(C#Cc2ccc3c(c2)C(C)(C)CCC3(C)C)cc1 | 136 to 139 °C
CC(C)C[C@@H]1NC(=O)O[C@H]1CCOS(C)(=O)=O | 99 to 100 °C
CC1(C(=O)C(CC2CCCCC2)n2cncn2)COCOC1 (configuration not stated) | 68 to 71 °C
COc1ccc(-c2c(C(=O)O)n(Cc3cc4c(cc3Cl)OCO4)c3ccccc23)cc1 | 189 to 190 °C
CN(C)C(=O)c1nc(-c2ccccc2)nc2c1c1ccc(Cl)cc1n2C | 211 to 213 °C
COc1ccc2c(ccn2-c2cccc(C#N)c2)c1 | 113 to 115 °C
CCC(=O)Oc1ccc2c(c1)C(=O)N(C(=O)CC)C(C(Cl)(Cl)Cl)O2 (configuration not stated) | 92 to 94 °C
Cc1ccc2nc(NC(=O)c3c(Cl)cccc3Cl)cc(NN)c2c1C | 190 to 198 °C
CC12CCC3c4ccc(O)c([N+](=O)[O-])c4CCC3C1CCC2=O (configuration not stated) | > 250 °C

Structure (SMILES) | melting point
N#CC1CN1C(=O)NC(=O)C(Cl)Cl (configuration not stated) | 164 to 166 °C
CCOC(=O)C(Cc1c(OCC)noc1-c1ncn(C(c2ccccc2)(c2ccccc2)c2ccccc2)n1)(NC(C)=O)C(=O)OCC | 145 to 149 °C
CC(C)c1[nH]nc2c1C(=O)c1c(NC(N)=O)cccc1-2 | > 250 °C
CN1CCC(C2(O)CC(c3ccc(F)cc3)c3ccc(F)cc32)CC1 (configuration not stated) | 146 to 147 °C
CC(C)(C)n1nnc(-c2ccccc2-c2cccc3ccccc23)n1 | 83 to 85 °C
CC(=O)OC(c1ccc(Cl)c(Cl)c1)C(Cl)(Cl)Cl (configuration not stated) | 85 to 86 °C
CCCOc1ccc(S(=O)(=O)N2CCN(CC)CC2)cc1-c1nc2cc3nc[nH]c3cc2c(=O)[nH]1 | 194 to 196 °C
CN1CCC(c2cccc3ccc(N)cc23)CC1 | 170 to 171 °C
Cn1nc2cccc(O)c2c1S(N)(=O)=O | 180 to 181 °C
CCOC(=O)Cc1ccc(NC2=NN(c3ccc(C)cc3)CC2)cc1 | 145 to 146 °C
CCNc1cc(NS(=O)(=O)c2ccc(N)cc2)nc(N(C)C)n1 | 237 to 238 °C
COc1ccc2oc(Cc3cccc(F)c3)c(CC#N)c2c1 | 67 °C
CCCNc1ccc(Cl)cc1Cl | 121 °C
O=C(O)CCC(=O)c1ccc(Br)s1 | 141 to 143 °C
CCOc1cc(N)ccc1C(O)c1cc(C)ccn1 (configuration not stated) | 102 to 105 °C
COc1ccc(C2=CCC(C#N)CC2)c2c1OCCO2 (configuration not stated) | 79 °C
C[C@@H](NC(=O)c1ccc[nH]1)C(=O)N[C@H]1CC(=O)O[C@@H]1OCc1ccccc1 | 109 to 112 °C
CCON=C(C(=O)O)c1csc(NC(c2ccccc2)(c2ccccc2)c2ccccc2)n1 | 200 °C
CCc1nnc2c(N(CC)CC)nc3cc(Cl)c(Cl)cc3n12 | 147 to 149 °C
Cc1c(Cc2cc(=O)n(C3CCCCC3)[nH]2)c2ccccc2n1C(=O)c1ccc(Cl)cc1 | 98 °C
COc1ccc(CNc2nc(-c3ccc(C(=O)O)cc3)nc3scc(C)c23)cc1Cl | 245 °C
NC1Cc2ccccc2CN(CC(=O)O)C1=O (configuration not stated) | 266 to 268 °C
COc1cc(N(C)C)nc(NC(=O)NS(=O)(=O)c2ccccc2CCC(F)(F)F)n1 | 183 to 184 °C
COc1ccccc1NC(=O)Nc1nc(Nc2ccccc2C(=O)O)nc(Nc2ccccc2-c2ccccc2)n1 | 228 °C

Further lines, results first:

melting point | Structure (SMILES)
108 to 110 °C | CNC(=O)c1ccc(F)c(Cl)c1
108 to 110 °C | Cc1nc(C)c(-c2ccc(C#N)cc2)s1
132 to 134 °C | CCCc1cn(C)c2c(=O)[nH]c(-c3cc(S(=O)(=O)N4CCN(CCCOC(=O)[C@@H](NC(=O)OC(C)(C)C)C(C)C)CC4)ccc3OCC)nc12
138 to 140 °C | O=C(O)/C(=N/O)c1ccc(OCCOc2ccc3ccccc3c2)s1
66 to 67 °C | CNC(=O)/C(=N/OC)c1ccccc1COc1ccc(C(F)(F)F)c(NC)n1
106 to 108 °C | COc1ccc(C(=O)CC(O)C(=O)O)cc1OC (configuration not stated)
195 °C | O=C1N(c2cc(Cl)cc(Cl)c2)C(=O)C2(Cc3ccc(-c4nnn[nH]4)cc3)CCCN12 (configuration not stated)
127 to 128 °C | CS(=O)(=O)c1ccc(Oc2ccc(C#N)cc2)cc1
125 to 127 °C | CCOC(=O)c1ccc(OCCCN2CCN(c3ccc(Cl)nn3)CC2)cc1
55 to 57 °C | O=c1ccc2ccc(OCCCCN3CCCN(c4cccc(Cl)c4Cl)CC3)cc2[nH]1
140 to 141 °C | O=S(=O)(Nc1cccnc1Nc1ccccc1)c1ccccc1Cl
155 °C | C[C@@H](Nc1ncnc2cc(OCC3CC3)c([N+](=O)[O-])cc12)c1ccccc1
179 to 180 °C | CC(C)(C)OC(=O)n1cccc1-c1ccc2c(c1)C1(CCCC1)C(=O)N2
114 to 116 °C | COc1ccc(-c2sc3cc(OC)ccc3c2C(=O)c2ccc(O)cc2)cc1
93 to 97 °C | CC(O)c1cccc(Oc2ncccc2OCCCc2ccncc2)c1 (configuration not stated)
220 °C | Cn1nnc2cc(OC3SCC(O)C(O)C3O)ccc21 (configuration not stated)
224 to 227 °C | O=C(Nc1ccc2[nH]c(=O)oc2c1)C(=O)N1CCC(Cc2ccc(F)cc2)CC1
112 to 115 °C | CN(C(=O)c1ccc2c(c1)nc(NC(=O)c1cccs1)n2CCCC(N)=O)C1CCCCC1
200 to 207 °C | COC(=O)COc1ccc2c(c1)S(=O)(=O)C=C(c1c(O)c3cc(F)ccc3n(Cc3ccc(F)cc3)c1=O)N2
102 to 105 °C | CCN(CC)C(=O)COc1cccc(-n2nc(-c3ccc(F)cc3)c3cccnc32)c1
236 °C | CC1CCCN(CC(C)N2c3ccccc3Sc3ccc(C(N)=S)cc32)C1 (mixture of isomers)
132 to 135 °C | CCOC(=O)N(CC)c1cccc(-c2ccc3nnc(C)n3n2)c1
133 to 135 °C | CC(=O)Oc1cc2occ(C=O)c(=O)c2cc1OC(C)=O
110 to 111 °C | CC(=O)NC(C)(C)c1ccc(CN2CCN(c3ccccc3)CC2)cc1

melting point | Structure (SMILES)
141 °C | CC1(C)Cc2cccc(OCCNCc3cncc(C4=CCCC4)c3)c2O1
205 to 206 °C | O=C(O)C1=C(c2ccccc2)c2cc(Br)ccc2CO1
206 to 207 °C | CNC(=O)C1=CC(CF)(CF)Oc2ccc(C#N)cc21
150 °C | CCOC(=O)C1=C(N)NC(C)=CC1c1ccccc1 (configuration not stated)
203 °C | O=C(N[C@@H](Cc1ccc(OCc2ccsc2)cc1)C(=O)O)c1cn2cc(-c3ccc(Cl)cc3)ccc2n1
143 to 146 °C | CCOC(=O)[C@H](Cc1ccc(OC)cc1)NC(=O)C1(NC(=O)OC(C)(C)C)CCCC1
185 to 186 °C | CC1Cc2cc(O)ccc2C2C(F)CC3(C)C(=O)CCC3C12 (configuration not stated)
51 to 53 °C | CCCc1c(OC(=O)OCC)ccc2oc(Cc3ccc(OC)cc3)c(C)c12
201 °C | CN(C(Cc1ccc(O)cc1)CN1CCN(c2ccccc2)CC1)S(=O)(=O)c1cccc2cnccc12 (configuration not stated)
163 to 165 °C | O=C1Nc2ccccc2C(c2ccccc2)N1CC1CCN(Cc2ccccc2)CC1 (configuration not stated)
179 to 182 °C | COc1ccc(CCc2cc3cc(C#N)ccc3o2)c(C(=O)O)c1
112 to 114 °C | CCOC(=O)N1CCC(Nc2ccc(Cl)cc2C(=O)c2ccccc2F)CC1
122 to 128 °C | C[C@@H](n1cnc2ccccc2c1=O)[C@](O)(Cn1cncn1)c1ccc(F)cc1F
160 to 161 °C | O=Cc1csc(N(c2ccccc2)c2ccccc2)n1
143 to 144 °C | COc1ccc(-c2ccc(C=O)c3ccoc23)cc1
178 to 180 °C | Nc1nc(C2CCN(C(=O)Nc3ccccc3)CC2)c2ccccc2n1
277 to 278 °C | CCc1[nH]n(C2CCCC2)c2nc(-c3cc(C)nc(-n4ccnc4)c3)nc(=O)c1-2
175 to 176 °C | CC1(C)CCC(C)(C)c2cc(C(N)C(=O)NCS(=O)(=O)c3ccccc3)ccc21 (configuration not stated)
73 to 74 °C | CCOC(=O)c1cnoc1-c1ccc2c(c1)OCO2
214 to 216 °C | O=C(Nc1cc(-c2ccnc3c(C(=O)c4cccs4)cnn23)ccc1F)c1ccccc1F
182 to 183 °C | O=[N+]([O-])c1ccccc1-c1nc2ccccc2n1CC(O)CO (configuration not stated)
99 to 101 °C | CC(C)N1C(=O)c2ccccc2N(C#N)S1(=O)=O
103 °C | CC(O)c1cc(F)ccc1Oc1nc2ccc(-n3cc(-c4ccccc4)nn3)cc2cc1Cc1ccccc1 (configuration not stated)
163 to 165 °C | Cc1cc2c(c3ccc(=O)[nH]c13)OC(CSCCN(C)C)C2 (configuration not stated)
